Experimental data as given in publication PMC12652692, “Synthesis and In Vitro Anticancer Evaluation of Novel Phosphonium Derivatives of Chrysin” (International Journal of Molecular Sciences, 2025).

Tests used:
Type in all cases: cell-based
[1] = system: RXF 393; assay: NCI60 five-dose screen; conditions: Homo sapiens; RXF 393, Renal Cancer
Description: (§1) Since all new conjugates (3a–h) had notable antiproliferative activities on several tumor cell lines in the course of the one-dose screening, they were subjected to a five-dose test. […] J. Mol. Sci. 2025, 26, 11063 10 of 10 S.3. NCI60 Screening A detailed description of the NCI screening procedures can also be found on the website of NCI [39], and in our previous work. S.3.1. One-Dose Screen All candidates were examined at first at a single high dose (10 μM) in the full NCI60 cell panel. The value reported for the one-dose test is growth relative to the no-drug control and relative to the time zero number of cells. This made possible the disclosure of both growth inhibition (numbers between 0 and 100) and lethality (numbers less than 0). For example, a value of 100 means no growth inhibition. A value of 20 would mean 80% growth inhibition. A value of 0 means no net growth over the course of the analysis. A value of −20 would mean 20% lethality. A value of −100 means all cells are dead. S.3.2. […] The human tumor cell lines of the cancer screening panel were grown in RPMI 1640 medium containing 5% fetal bovine serum and 2 mM l-glutamine. Characteristically, cells were injected in 96-well microtiter plates in 0.1 mL at plating densities ranging from 5000 to 40,000 cells/well, depending on the doubling time of individual cell lines. After cell inoculation, the microtiter plates were incubated at 37 °C, 5% carbon dioxide, 95% air, and 100% relative humidity for 24 hours before the addition of tested compounds. After 24 hours, 2 plates of each cell line were fixed in situ with Cl3COOH (TCA), to represent a measurement of the cell population for each cell line at the time of drug addition (tz). Tested compounds were solubilized in DMSO at 400-fold the desired final maximum test concentration and stored frozen before application. In the course of the drug addition, an aliquot of frozen concentrate was thawed and diluted to twice the desired final maximum test concentration with a complete medium containing 50 μg mL−1 gentamicin. Additional four, 10-fold or ½ log serial dilutions were produced to furnish a total of five drug concentrations plus control. Aliquots of 0.1 mL of these different drug dilutions were added to the appropriate microtiter wells already containing 0.1 mL of medium, resulting in the required final drug concentrations. Following drug addition, the plates were incubated at 37 °C, 5% carbon dioxide, 95% air, and 100% relative humidity for an additional 48 hours. For adherent cells, the test was finished by the addition of cold Cl3COOH. Cells were fixed in situ by the addition of 50 μL of cold 50% (w/v) Cl3COOH, and incubated at 4 °C for 1 hour. The supernatant was discarded, and the plates were washed with H2O (5×) and dried in air. Sulforhodamine B (SRB) solution (0.1 mL) at 0.4% (w/v) in 1% CH3COOH was added to each well, and plates were incubated at RT for 10 min. After staining, the unbound dye was removed by washing five times with 1% CH3COOH, and the plates were dried in the air. The bound stain is afterward solubilized with a 10 mM trizma base, and the absorbance is read on an automated plate reader at λ = 515 nm. Utilizing the seven absorbance measurements [time zero (tz), control growth (c), and test growth in the presence of the drug at the five concentration levels (ti)], the percentage growth was determined at each of the drug concentration levels. Growth inhibition (%) was calculated as: [(ti − tz)/(c − tz)] × 100, for concentrations where ti ≥ tz (1) [(ti − tz)/(tz)] × 100, for concentrations where ti < tz. (2) Three dose‒response parameters were calculated as follows. GI50 (growth inhibition of 50%) was determined from Equation (3), which is the drug concentration resulting in a 50% reduction in the net protein increase (as measured by SRB staining) in control cells in the course of the drug incubation. [(ti − tz)/(c − tz)] × 100 = 50 (3)

[2] = system: HOP-92; assay: NCI60 five-dose screen; conditions: Homo sapiens; HOP-92, Non-small-Cell Lung Cancer
Description: as §1

[3] = system: SF-268; assay: NCI60 five-dose screen; conditions: Homo sapiens; SF-268, CNS Cancer
Description: as §1

[4] = system: OVCAR-4; assay: NCI60 five-dose screen; conditions: Homo sapiens; OVCAR-4, Ovarian Cancer
Description: as §1

[5] = system: NCI-H226; assay: NCI60 five-dose screen; conditions: Homo sapiens; NCI-H226, Non-small-Cell Lung Cancer
Description: as §1

[6] = system: SF-539; assay: NCI60 five-dose screen; conditions: Homo sapiens; SF-539, CNS Cancer
Description: as §1

[7] = system: IGROV1; assay: NCI60 five-dose screen; conditions: Homo sapiens, IGROV-1; IGROV1, Ovarian Cancer
Description: as §1

[8] = system: M14; assay: NCI60 five-dose screen; conditions: Homo sapiens; M14, Melanoma
Description: as §1

[9] = system: K-562; assay: NCI60 five-dose screen; conditions: Homo sapiens, K562; K-562, Leukemia
Description: as §1

[10] = system: PC-3; assay: NCI60 five-dose screen; conditions: Homo sapiens; PC-3, Prostate Cancer
Description: as §1

[11] = system: A498; assay: NCI60 five-dose screen; conditions: Homo sapiens; A498, Renal Cancer
Description: as §1

[12] = system: SK-OV-3; assay: NCI60 five-dose screen; conditions: Homo sapiens; SK-OV-3, Ovarian Cancer
Description: as §1

[13] = system: OVCAR-8; assay: NCI60 five-dose screen; conditions: Homo sapiens; OVCAR-8, Ovarian Cancer
Description: as §1

[14] = system: HCT-116; assay: NCI60 five-dose screen; conditions: Homo sapiens; HCT-116, Colon Cancer
Description: as §1

[15] = system: RPMI-8226; assay: NCI60 five-dose screen; conditions: Homo sapiens; RPMI-8226, Leukemia
Description: as §1

[16] = system: SF-295; assay: NCI60 five-dose screen; conditions: Homo sapiens; SF-295, CNS Cancer
Description: as §1

[17] = system: SK-MEL-28; assay: NCI60 five-dose screen; conditions: Homo sapiens; SK-MEL-28, Melanoma
Description: as §1

[18] = system: NCI-H322M; assay: NCI60 five-dose screen; conditions: Homo sapiens, Non-small-Cell Lung Cancer
Description: as §1

[19] = system: NCI-H522; assay: NCI60 five-dose screen; conditions: Homo sapiens; NCI-H522, Non-small-Cell Lung Cancer
Description: as §1

[20] = system: HT29; assay: NCI60 five-dose screen; conditions: Homo sapiens, HT-29; HT29, Colon Cancer
Description: as §1

[21] = system: MCF7; assay: NCI60 five-dose screen; conditions: Homo sapiens; MCF7, Breast Cancer
Description: as §1

[22] = system: 60 human cancer cell lines; assay: NCI60 five-dose screen, overall mean; conditions: mean over all 60 cell lines
Description: as §1

Row | SMILES | GI50 [1] [nM] | GI50 [2] [nM] | GI50 [3] [nM] | GI50 [4] [nM] | GI50 [5] [nM] | GI50 [6] [nM] | GI50 [7] [nM] | GI50 [8] [nM] | GI50 [9] [nM] | GI50 [10] [nM] | GI50 [11] [nM] | GI50 [12] [nM] | GI50 [13] [nM] | GI50 [14] [nM] | GI50 [15] [nM] | GI50 [16] [nM] | GI50 [17] [nM] | GI50 [18] [nM] | GI50 [19] [nM] | GI50 [20] [nM] | further results
1 | O=c1cc(-c2ccccc2)oc2cc(OCCCC[P+](c3ccccc3)(c3ccccc3)c3ccccc3)cc(O)c12 [3a] | 225 | 234 | 380 | 370 | 354 | 380 | 405 | 378 | 216 | 305 | 422 | 329 | 350 | 297 | 205 | 297 | 474 | 976 | 228 | 1280 | GI50 [21]: 291 nM; GI50 [22]: 455 nM
2 | Cc1ccc([P+](CCCCOc2cc(O)c3c(=O)cc(-c4ccccc4)oc3c2)(c2ccc(C)cc2)c2ccc(C)cc2)cc1 [3b] | 333 | 163 | 285 | 247 | 277 | 498 | 416 | 331 | 137 | 182 | 400 | 301 | 337 | 248 | 144 | 215 | 514 | 532 | 274 | 855 | GI50 [21]: 268 nM; GI50 [22]: 322 nM
3 | COc1ccc([P+](CCCCOc2cc(O)c3c(=O)cc(-c4ccccc4)oc3c2)(c2ccc(OC)cc2)c2ccc(OC)cc2)cc1 [3c] | 257 | 252 | 351 | 382 | 606 | 410 | 413 | 478 | 376 | 320 | 1570 | 382 | 408 | 337 | 235 | 1060 | 453 | 1420 | 405 | 1250 | GI50 [21]: 407 nM; GI50 [22]: 565 nM
4 | O=c1cc(-c2ccccc2)oc2cc(OCCCC[P+](c3ccc(F)cc3)(c3ccc(F)cc3)c3ccc(F)cc3)cc(O)c12 [3d] | 1820 | 1320 | 1570 | 1640 | 1820 | 1930 | 1890 | 1750 | 1400 | 1760 | 2070 | 1620 | 1840 | 1670 | 1310 | 1520 | 1690 | 1990 | 1820 | 1840 | GI50 [21]: 1620 nM; GI50 [22]: 2050 nM
